What all share (assay type): biochemical
One experiment deals with GSK-3α (Homo sapiens, UniProt P49840). The experiment can be described thus: GSK-3 kinase assay (C1), GSK-3α. The following applies: 1 μM ATP, read-out: C1 Score α. The protocol:
(§1) In vitro GSK-3 assays were performed at room temperature in a 100 μl reaction volume of 25 mM Tris (pH 7.4) containing 10 mM MgCl2.6H2O, 1 mM DTT, 0.1 mg/ml BSA, 5% glycerol, 5.7 ng/μl GSK-3β or 0.25 ng/μl GSK-3α, 5 μM biotinylated CREB peptide, 1 μM ATP, 0.85 μCi/ml ^33P-ATP and a suitable amount of a test compound. After one hour, the reaction was terminated by adding 70 μl of Stop mix (0.1 mM ATP, 5 mg/ml streptavidin coated PVT SPA beads, pH 11.0). The beads were allowed to settle overnight and the radioactivity attached to the beads was counted in a microtiter plate scintillation counter and compared with the results obtained in a control experiment (without the presence of a test compound) in order to determine the percentage of GSK-3 inhibition. The IC50 value, i.e. the concentration (M) of the test compound at which 50% of GSK-3 is inhibited, was calculated from the dose response curve obtained by performing the above-described GSK-3 assay in the presence of different amounts of the test compound. Score 1=pIC50 value<6, Score 2=pIC50 value from 6-7, Score 3=pIC50 value from 7-8, Score 4=pIC50 value>8.

A further experiment concerns the target GSK-3β (Homo sapiens, UniProt P49841). The experiment can be described thus: GSK-3 kinase assay (C1), GSK-3β. The conditions noted are these: 1 μM ATP, read-out: C1 Score β. As for the experimental part: as §1
A further experiment concerns the target CDK2/cyclinE (h) (Homo sapiens, UniProt P24941). The experiment can be described thus: Kinase profiling C3.4 CDK2/cyclinE human. The conditions noted are these: test concentration of 10^−6 M. The protocol: (§2) The in vitro inhibition of a panel of kinases was assessed using either the glass-fiber filter technology as described by Davies, S. P. et al., Biochem J. (2000), 351; p. 95-105. In the glass-fiber filter technology the activity of the kinase of interest is measured using an appropriate substrate that is incubated with the aforementioned kinase protein in the presence of (^33P) radiolabeled ATP. (^33P) Phosporylation of the substrate is subsequently measured as radioactivity bound on a glassfiber-filter.
(§3) All kinases are pre-diluted to a 10× working concentration prior to addition into the assay. The composition of the dilution buffer for each kinase is detailed below.
(§4) All substrates are dissolved and diluted to working stocks in de-ionised water, apart from histone H1 that is stored in 10× working stock in 20 mM MOPS pH 7.4.
(§5) In a final reaction volume of 25 μl, CDK2/cyclinE (h) (5-10 mU) is incubated with 8 mM MOPS pH 7.0, 0.2 mM EDTA, 0.1 mg/ml histone H1, 10 mM MgAcetate and [γ-^33P-ATP] (specific activity approx. 500 cpm/pmol, concentration as required). The reaction is initiated by the addition of the MgATP mix. After incubation for 40 minutes at room temperature, the reaction is stopped by the addition of 5 μl of a 3% phosphoric acid solution. 10 μl of the reaction is then spotted onto a P30 filtermat and washed three times for 5 minutes in 75 mM phosphoric acid and once in methanol prior to drying and scintillation counting.

The next experiment deals with CDK2/cyclinA (h) (Homo sapiens, UniProt P24941). In words: Kinase profiling C3.3 CDK2/cyclinA human. The conditions noted are these: test concentration of 10^−6 M. As for the experimental part: as §2, §3, §4
as §5, with “CDK2/cyclinA” for “CDK2/cyclinE”

In the next experiment the target is CDK3/cyclinE (h) (Homo sapiens, UniProt Q00526). The experiment can be described thus: Kinase profiling C3.5 CDK3/cyclinE human. The conditions noted are these: test concentration of 10^−6 M. The protocol: as §2, §3, §4
as §5, with “CDK3/cyclinE” for “CDK2/cyclinE”

Another experiment addresses CDK5/p35 human (Homo sapiens, UniProt Q00535). The experiment can be described thus: Kinase profiling C3.6 CDK5/p35 human. The following applies: CDK5/p35, test concentration of 10^−6 M. As for the experimental part: as §2, §3, §4
as §5, with “CDK5/p35 human” for “CDK2/cyclinE (h)”

For a further experiment, the target named is CDK7/cyclinH/MAT1 (h) (Homo sapiens, UniProt P50613). In words: Kinase profiling C3.8 CDK7/cyclinH/MAT1 human. The conditions noted are these: CDK7/cyclinH/MAT1, test concentration of 10^−6 M. As for the experimental part: as §2, §3, §4
CDK7/cyclinH/MAT1 (h), sequence (P50613 whole entry): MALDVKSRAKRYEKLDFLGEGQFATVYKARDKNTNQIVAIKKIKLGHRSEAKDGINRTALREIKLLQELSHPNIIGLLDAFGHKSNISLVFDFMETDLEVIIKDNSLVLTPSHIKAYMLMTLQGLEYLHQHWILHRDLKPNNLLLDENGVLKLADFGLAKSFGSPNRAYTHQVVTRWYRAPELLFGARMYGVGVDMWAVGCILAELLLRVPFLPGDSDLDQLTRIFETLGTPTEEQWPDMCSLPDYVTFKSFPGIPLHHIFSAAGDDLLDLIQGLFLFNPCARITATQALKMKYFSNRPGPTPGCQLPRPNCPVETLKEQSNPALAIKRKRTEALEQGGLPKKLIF
CDK7/cyclinH/MAT1 (h), sequence (P51946 whole entry partner): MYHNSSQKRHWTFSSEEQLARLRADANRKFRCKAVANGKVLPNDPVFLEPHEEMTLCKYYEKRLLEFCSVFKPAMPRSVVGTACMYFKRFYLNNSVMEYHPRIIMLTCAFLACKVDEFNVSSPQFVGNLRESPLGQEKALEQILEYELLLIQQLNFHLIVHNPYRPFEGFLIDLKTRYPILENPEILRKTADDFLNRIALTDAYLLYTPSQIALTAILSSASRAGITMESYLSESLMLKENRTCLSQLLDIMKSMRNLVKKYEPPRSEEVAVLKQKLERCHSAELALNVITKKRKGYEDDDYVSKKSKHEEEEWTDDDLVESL
CDK7/cyclinH/MAT1 (h), sequence (P51948 whole entry partner): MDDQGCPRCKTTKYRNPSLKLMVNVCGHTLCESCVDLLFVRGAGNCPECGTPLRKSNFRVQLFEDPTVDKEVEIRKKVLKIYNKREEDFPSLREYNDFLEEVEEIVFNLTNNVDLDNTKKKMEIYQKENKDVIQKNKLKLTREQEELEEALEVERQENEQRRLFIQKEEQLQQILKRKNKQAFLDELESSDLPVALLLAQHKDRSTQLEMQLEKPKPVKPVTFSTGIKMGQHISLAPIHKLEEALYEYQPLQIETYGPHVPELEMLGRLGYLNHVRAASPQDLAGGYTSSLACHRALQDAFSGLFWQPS
as §5, with “CDK7/cyclinH/MAT1” for “CDK2/cyclinE”, “500 μM peptide,” for “0.1 mg/ml histone H1,”

The target of the next experiment is CDK1/cyclinB (h) (Homo sapiens, UniProt P06493). The experiment can be described thus: Kinase profiling C3.2 CDK1/cyclinB human. The conditions noted are these: test concentration of 10^−6 M. As for the experimental part: as §2, §3, §4
CDK1/cyclinB (h), sequence (P06493 whole entry): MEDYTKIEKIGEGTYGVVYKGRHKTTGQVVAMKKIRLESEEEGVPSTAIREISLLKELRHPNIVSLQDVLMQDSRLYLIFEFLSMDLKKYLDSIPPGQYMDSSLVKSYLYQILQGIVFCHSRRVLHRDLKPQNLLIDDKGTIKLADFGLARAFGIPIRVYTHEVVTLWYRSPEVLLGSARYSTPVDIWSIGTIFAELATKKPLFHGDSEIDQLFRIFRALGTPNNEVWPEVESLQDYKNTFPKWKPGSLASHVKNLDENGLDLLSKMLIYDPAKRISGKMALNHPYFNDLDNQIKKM
CDK1/cyclinB (h), sequence (P14635 whole entry partner): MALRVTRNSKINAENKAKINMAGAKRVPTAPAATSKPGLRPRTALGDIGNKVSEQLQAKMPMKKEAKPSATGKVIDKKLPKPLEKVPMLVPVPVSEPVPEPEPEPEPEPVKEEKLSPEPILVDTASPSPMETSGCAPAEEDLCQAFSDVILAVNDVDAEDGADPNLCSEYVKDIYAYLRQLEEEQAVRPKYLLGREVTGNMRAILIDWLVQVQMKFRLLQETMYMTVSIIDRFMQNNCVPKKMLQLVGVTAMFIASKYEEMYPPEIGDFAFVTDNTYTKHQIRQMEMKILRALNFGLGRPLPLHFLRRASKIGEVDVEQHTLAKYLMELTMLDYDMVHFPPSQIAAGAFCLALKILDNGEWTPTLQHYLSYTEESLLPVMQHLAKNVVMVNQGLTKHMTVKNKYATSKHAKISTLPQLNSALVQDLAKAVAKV
as §5, with “CDK1/cyclinB” for “CDK2/cyclinE”

Structures are written as SMILES.

GSK-3α, sequence (P49840 whole entry, species assumed): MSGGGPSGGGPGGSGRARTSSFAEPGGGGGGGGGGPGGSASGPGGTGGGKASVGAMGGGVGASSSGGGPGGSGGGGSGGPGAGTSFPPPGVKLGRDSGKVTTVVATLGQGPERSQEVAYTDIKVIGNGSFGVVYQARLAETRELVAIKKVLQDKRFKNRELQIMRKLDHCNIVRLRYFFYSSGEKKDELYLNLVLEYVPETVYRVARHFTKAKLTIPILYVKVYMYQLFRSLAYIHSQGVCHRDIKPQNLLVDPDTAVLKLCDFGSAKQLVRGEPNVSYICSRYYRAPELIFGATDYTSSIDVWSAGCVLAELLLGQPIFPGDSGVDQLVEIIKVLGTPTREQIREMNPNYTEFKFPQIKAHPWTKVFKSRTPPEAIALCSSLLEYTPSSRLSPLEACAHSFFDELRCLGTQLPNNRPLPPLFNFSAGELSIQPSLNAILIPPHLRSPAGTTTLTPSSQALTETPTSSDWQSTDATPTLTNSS
GSK-3β, sequence (P49841 whole entry, species assumed): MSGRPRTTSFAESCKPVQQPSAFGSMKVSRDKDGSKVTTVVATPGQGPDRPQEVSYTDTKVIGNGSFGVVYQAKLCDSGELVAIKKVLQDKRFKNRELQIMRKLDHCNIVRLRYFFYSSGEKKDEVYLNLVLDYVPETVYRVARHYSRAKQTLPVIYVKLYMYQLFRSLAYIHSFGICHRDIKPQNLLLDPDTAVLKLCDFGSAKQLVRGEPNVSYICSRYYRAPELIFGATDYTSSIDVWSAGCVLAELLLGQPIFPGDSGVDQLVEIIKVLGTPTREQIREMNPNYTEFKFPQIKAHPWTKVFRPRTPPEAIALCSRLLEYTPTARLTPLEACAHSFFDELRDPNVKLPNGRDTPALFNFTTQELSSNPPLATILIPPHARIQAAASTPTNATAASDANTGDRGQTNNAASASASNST
CDK5/p35 human, sequence (Q00535 whole entry): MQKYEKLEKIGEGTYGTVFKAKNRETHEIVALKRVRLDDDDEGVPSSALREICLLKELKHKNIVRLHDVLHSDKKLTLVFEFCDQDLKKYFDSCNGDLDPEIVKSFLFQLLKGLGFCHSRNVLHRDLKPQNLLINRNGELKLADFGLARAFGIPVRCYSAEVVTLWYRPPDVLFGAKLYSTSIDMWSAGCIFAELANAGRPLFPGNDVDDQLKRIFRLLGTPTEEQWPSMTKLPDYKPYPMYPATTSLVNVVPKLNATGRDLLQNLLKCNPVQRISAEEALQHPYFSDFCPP
CDK5/p35 human, sequence (Q15078 whole entry partner): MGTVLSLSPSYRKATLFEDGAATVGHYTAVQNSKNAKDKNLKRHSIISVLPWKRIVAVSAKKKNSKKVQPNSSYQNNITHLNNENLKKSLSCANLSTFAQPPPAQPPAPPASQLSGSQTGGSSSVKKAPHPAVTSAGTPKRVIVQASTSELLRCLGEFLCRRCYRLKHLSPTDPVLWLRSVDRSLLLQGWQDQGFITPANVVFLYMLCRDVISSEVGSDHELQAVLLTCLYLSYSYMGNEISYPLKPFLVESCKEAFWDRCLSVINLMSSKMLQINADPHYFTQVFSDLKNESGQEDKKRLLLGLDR

Regarding `O=C1NCCCc2cccc(c2)-c2ncnc(n2)Nc2cccc(c2)CN[C@H]1Cc1ccccc1` [Compound 45], the IC50 at GSK-3α lay in the range of 10 to 100 nM.

Consider `O=C1NCCNc2cccc(c2)-c2ncnc(n2)Nc2cccc(c2)CN[C@H]1Cc1ccccc1` [Compound 64], for which the IC50 at GSK-3α is 100 to 1000 nM.

With `O=C1CCN2CCN(CC2)Cc2cccc(c2)Nc2ncnc(n2)-c2cccc(c2)NCCN1` [Compound 60], the IC50 on GSK-3α lay in the range of 100 to 1000 nM.

Consider `O=C1NCCCc2cccc(c2)-c2ncnc(n2)Nc2cccc(c2)CN2C[C@@H](O)C[C@H]12` [Compound 50], for which the IC50 on GSK-3α lay in the range of 10 to 100 nM.

On to `O=C1NCCOc2ccc(cc2)-c2ncnc(n2)Nc2cccc(c2)CN2CCC1CC2` [Compound 73], for which the IC50 at GSK-3α fell in the range of 100 to 1000 nM.

As for `CN1CCC(=O)NCCCCc2cc(ccn2)-c2ncnc(n2)Nc2cccc(c2)C1` [Compound 68], at GSK-3α, the IC50 lay within 100 to 1000 nM.

Consider `O=C1NCCNc2cccc(c2)-c2ncnc(n2)Nc2cccc(c2)CN2CCCC1C2` (stereo not shown) [Compound 61], for which, at GSK-3α, the IC50 is 100 to 1000 nM.

`O=C1CCN2CCN(CCCc3cc(ccn3)-c3ncnc(n3)Nc3cccc(c3)CCN1)CC2` [Compound 29]: the IC50 on GSK-3α and at GSK-3β was 10 to 100 nM throughout.

For the molecule `C[C@H]1NCCCc2cccc(c2)-c2ncnc(n2)Nc2ccccc2CNC1=O` [Compound 80], on GSK-3α, the IC50 fell in the range of 100 to 1000 nM.

In the case of `O=C1NCCCc2cc(ccn2)-c2ncnc(n2)Nc2cc(Cl)cc(c2)CN2CCCC1C2` (stereo not shown) [Compound 39], the C3.4 score at CDK2/cyclinE (h) is reported as 3 (Score 3 = 60-80% inhibition). Also, the C3.3 score at CDK2/cyclinA (h) is 3 (Score 3 = 60-80% inhibition). Moreover, at CDK3/cyclinE (h), the C3.5 score is listed as 2 (Score 2 = 30-60% inhibition). In addition, at CDK5/p35 human, the C3.6 score is reported as 1 (Score 1 = 10-30% inhibition). Besides, the C3.8 score on CDK7/cyclinH/MAT1 (h) is reported as 3 (Score 3 = 60-80% inhibition). Moreover, the C3.2 score on CDK1/cyclinB (h) is recorded as 2 (Score 2 = 30-60% inhibition). Further, the IC50 on GSK-3α was 100 to 1000 nM; at GSK-3β, 10 to 100 nM.

As to `O=C1COc2cccc(c2)Nc2ncnc(n2)-c2ccnc(c2)CCCN1` [Compound 74], the IC50 on GSK-3α was 10 to 100 nM.

As to `C[C@H]1NCc2cccc(c2)Nc2ncnc(n2)-c2cccc(c2)CCCNC1=O` [Compound 47], the IC50 on GSK-3α was 10 to 100 nM.

For the molecule `C[C@@H]1NCc2cccc(c2)Nc2ncnc(n2)-c2cccc(c2)CCCNC1=O` [Compound 44], at GSK-3α, the IC50 was in the range of 100 to 1000 nM.

For the molecule `C[C@@H]1NCc2cccc(c2)Nc2ncnc(n2)-c2cccc(c2)NCCNC1=O` [Compound 63], the IC50 on GSK-3α is 100 to 1000 nM.

On to `CC1(C)NCc2cccc(c2)Nc2ncnc(n2)-c2cccc(c2)CCCNC1=O` [Compound 48], for which, at GSK-3α, the IC50 was in the range of 100 to 1000 nM.

On to `O=C1NCCCc2cccc(c2)-c2ncnc(n2)Nc2cccc(c2)CN2CCC1CC2` [Compound 51], for which the IC50 at GSK-3α fell in the range of 10 to 100 nM.

Turning to `C=CCN1CC(=O)NCCNc2ncccc2-c2ncnc(n2)Nc2cccc(c2)C1` [Compound 79], on GSK-3α, the IC50 was in the range of 100 to 1000 nM.

Consider `CN1CCCC(=O)NCCCc2cccc(c2)-c2ncnc(n2)Nc2cccc(c2)C1` [Compound 53], for which the IC50 at GSK-3α lay in the range of 10 to 100 nM.

On to `O=C1CNCc2cccc(c2)Nc2ncnc(n2)-c2cccc(c2)CCCN1` [Compound 42], for which the IC50 on GSK-3α is 100 to 1000 nM.

In the case of `CN1CCC(=O)NCCCc2cccc(c2)-c2ncnc(n2)Nc2cccc(c2)C1` [Compound 49], the IC50 at GSK-3α fell in the range of 10 to 100 nM.

`O=C1NCCCc2cc(ccn2)-c2ncnc(n2)Nc2cc(Cl)cc(c2)CN2CCC[C@@H]12` [Compound 38]: on CDK2/cyclinE (h), the C3.4 score is 4 (Score 4 = >80% inhibition). Besides, at CDK2/cyclinA (h), the C3.3 score is reported as 4 (Score 4 = >80% inhibition). At CDK3/cyclinE (h), the C3.5 score was 3 (Score 3 = 60-80% inhibition). The C3.6 score on CDK5/p35 human was 2 (Score 2 = 30-60% inhibition). Besides, the C3.8 score on CDK7/cyclinH/MAT1 (h) was 3 (Score 3 = 60-80% inhibition). In addition, the C3.2 score on CDK1/cyclinB (h) is given as 4 (Score 4 = >80% inhibition). Besides, the IC50 on GSK-3α and at GSK-3β was 100 to 1000 nM in each case.

Regarding `O=C1NCCCc2cccc(c2)-c2ncnc(n2)Nc2cccc(c2)CN2CCC[C@@H]12` [Compound 56], at GSK-3α, the IC50 was 100 to 1000 nM.

`O=C1NCCc2cccc(c2)Nc2ncnc(n2)-c2ccnc(c2)CCCN2CCCC12` (stereo not shown) [Compound 28]: the IC50 on GSK-3α lay within 100 to 1000 nM; at GSK-3β it was 10 to 100 nM.

`O=C1NCCCc2cccc(c2)-c2ncnc(n2)Nc2cccc(c2)CN2CCCC1C2` (stereo not shown) [Compound 55]: the IC50 at GSK-3α lay in the range of 10 to 100 nM.

`O=C1NCCNc2cccc(c2)-c2ncnc(n2)Nc2cccc(c2)CN2CCC1CC2` [Compound 62]: at GSK-3α, the IC50 was 100 to 1000 nM.

As to `CN1CC(=O)N2CCN(CCc3cc(ccn3)-c3ncnc(n3)Nc3cccc(c3)C1)CC2` [Compound 77], the IC50 on GSK-3α fell in the range of 100 to 1000 nM.

In the case of `O=C1NCCCc2cc(ccn2)-c2ncnc(n2)Nc2cccc(c2)CN2CCC1CC2` [Compound 16], the IC50 on GSK-3α and at GSK-3β was 10 to 100 nM throughout.

Turning to `O=C1CCN2CCN(CC2)Cc2cccc(c2)Nc2ncnc(n2)-c2cccc(c2)CCCN1` [Compound 57], the IC50 at GSK-3α is 100 to 1000 nM.

For `O=C1COc2cccc(c2)Nc2ncnc(n2)-c2ccnc(c2)CCCN2CCN1CC2` [Compound 78], the IC50 on GSK-3α lay in the range of 10 to 100 nM.

Take `CN1CC(=O)NCCOc2cccc(c2)Nc2ncnc(n2)-c2ccnc(c2)C1` [Compound 76]: the IC50 at GSK-3α is under 10 nM.

On to `CN1CC(=O)NCCNc2cccc(c2)-c2ncnc(n2)Nc2cccc(c2)C1` [Compound 43], for which the IC50 is 100 to 1000 nM on GSK-3α and 10 to 100 nM at GSK-3β.

These data come from US8778919B2, “Cyclic anilino—pyridinotriazines” (Janssen Pharmaceutica NV, priority 2005, dated 2014).
